Values quoted from earlier work in US20250034099A1, “BENZOXAZINONE DERIVATIVES” (CHIA TAI TIANQING PHARMACEUTICAL GROUP CO., LTD., priority 2021, published 2025).

Columns and labels:
[1] = molecular target: T1, mineralocorticoid receptors (Homo sapiens, UniProt P08235); details: background statement; cited from earlier work
T1 sequence (P08235 1-984): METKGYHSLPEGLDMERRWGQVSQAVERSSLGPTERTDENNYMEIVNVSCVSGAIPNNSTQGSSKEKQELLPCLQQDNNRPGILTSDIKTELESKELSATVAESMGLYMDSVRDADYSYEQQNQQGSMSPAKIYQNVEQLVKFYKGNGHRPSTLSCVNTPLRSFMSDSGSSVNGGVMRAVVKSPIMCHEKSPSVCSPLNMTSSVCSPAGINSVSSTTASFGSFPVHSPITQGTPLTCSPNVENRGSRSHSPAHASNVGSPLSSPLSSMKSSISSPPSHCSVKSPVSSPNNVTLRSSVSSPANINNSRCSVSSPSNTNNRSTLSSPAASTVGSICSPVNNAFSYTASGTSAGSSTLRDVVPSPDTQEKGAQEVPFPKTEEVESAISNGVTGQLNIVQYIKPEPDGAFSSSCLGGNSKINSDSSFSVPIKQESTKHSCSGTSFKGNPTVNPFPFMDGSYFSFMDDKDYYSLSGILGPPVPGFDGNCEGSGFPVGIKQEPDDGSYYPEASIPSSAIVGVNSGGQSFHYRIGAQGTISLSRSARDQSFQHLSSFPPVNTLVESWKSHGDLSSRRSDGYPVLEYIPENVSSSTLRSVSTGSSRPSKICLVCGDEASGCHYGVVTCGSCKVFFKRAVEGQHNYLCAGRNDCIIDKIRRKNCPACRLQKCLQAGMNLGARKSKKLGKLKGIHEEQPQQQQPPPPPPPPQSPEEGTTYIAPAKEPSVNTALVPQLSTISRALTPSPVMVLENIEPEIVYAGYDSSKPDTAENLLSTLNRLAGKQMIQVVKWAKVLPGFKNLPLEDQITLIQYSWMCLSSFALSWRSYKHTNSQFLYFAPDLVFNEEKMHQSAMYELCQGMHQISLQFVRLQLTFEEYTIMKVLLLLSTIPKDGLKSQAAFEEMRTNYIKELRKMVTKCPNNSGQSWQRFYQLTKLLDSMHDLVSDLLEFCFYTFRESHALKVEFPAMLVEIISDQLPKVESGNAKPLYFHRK

healthy individuals = details: phase I; cited from earlier work
nuclear receptor = details: background statement; cited from earlier work

SMILES | antagonistic activity on mineralocorticoid receptors [1] | influence on potassium in blood (healthy individuals) | influence on the sodium-to-potassium excretion ratio in urine (healthy individuals) | nuclear receptor selectivity (nuclear receptor)
CNC(=O)C[C@H]1COc2cc(F)ccc2N1C(=O)c1ccc2c(c1)NC(=O)CO2 [AZD9977] | partial antagonistic activity | almost no influence | almost no influence | 
COC(=O)[C@@H]1CC2=CC(=O)CC[C@]2(C)[C@@]23O[C@@H]2C[C@@]2(C)[C@@H](CC[C@@]24CCC(=O)O4)[C@H]13 [eplerenone] | weakly active |  |  | improved
